The record followed here is US9981972B2, “N-hydroxy bicyclic hydantoin carbamates as tools for identification of serine hydrolase targets” (ABIDE THERAPEUTICS, INC., priority 2014, dated 2018).

Each structure is given as a SMILES string.

One data set concerns the target T1, endogenous PPT1 (Homo sapiens, UniProt P50897).
T1 construct: endogenous in cells; host or cells: PC3
T1 sequence (P50897 28-306): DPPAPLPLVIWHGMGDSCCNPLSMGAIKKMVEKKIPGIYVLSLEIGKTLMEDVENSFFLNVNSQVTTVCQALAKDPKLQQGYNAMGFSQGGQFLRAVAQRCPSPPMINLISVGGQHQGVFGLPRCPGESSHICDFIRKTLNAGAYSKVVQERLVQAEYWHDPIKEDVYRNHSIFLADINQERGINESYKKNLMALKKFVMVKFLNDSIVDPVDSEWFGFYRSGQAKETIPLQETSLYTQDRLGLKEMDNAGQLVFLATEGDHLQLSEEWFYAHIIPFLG
Put plainly: PPT1 substrate assay, PC3 cells treated in situ. To be noted: 4 h in situ; for reduction in 4-MUBO hydrolysis activity versus DMSO: 500 nM inhibitor. The format is cell-based. The protocol:
PPT1 activity was assessed in vitro using a substrate assay adapted from previous studies (van Diggelen et al., Molecular genetics and metabolism 66, 240-244, 1999). Lysates from HEK293T cells transfected with an empty vector, or human PPT1 under a CMV promoter were adjusted to 1 mg/ml in PBS (25 μl), and then combined 1:1 with Mcllvain's phosphate/citrate buffer containing 0.375% (v/v) Triton-X 100 and 15 mM DTT (pH 5.0). This sample was pre-treated with inhibitor or DMSO for 30 minutes at 37° C., and 10 μl (5 μg protein) was used in the substrate assay as follows: Samples were diluted in a black 96-well plate (half-area) with 20 μl McIlvain's phosphate/citrate buffer (pH 5.0) containing 0.375% TX-100 and 15 mM DTT, as well as 0.64 mM MU-6S-Palm-PD-Glc and 0.1 U sweet almond glucosidase (Sigma). The reactions were incubated at 37° C. for 1 hour, quenched with 120 μl sodium bicarbonate buffer (pH 10.0), and hydrolysis by 4-MU fluorescence measured by excitement at […] and emission intensity at […]. 16 μg protein was used for analysis of native PC3 cells.
In situ inhibitor treatments of human cell lines were performed as described previously (Hsu et al., J Med Chem 56, 8270-8279, 2012). Briefly, PC3 or transfected HEK293T cells were grown to confluency in serum-containing media (RPMI or DMEM, respectively). The culture media was then removed and replaced with fresh media containing DMSO or inhibitor at the desired concentration and incubated for 4 hours in a tissue culture incubator (37° C., 5% CO2). Cells were then washed with PBS, harvested, washed with PBS once more, and lysed with a probe sonicator.
Compound 26 was then tested to see if it inhibited PPT1 activity using a substrate assay. […] In this assay, PPT1 hydrolyzes the substrate's palmitoyl thioester bond, and exogenous sweet almond β-glucosidase deglycosylates and frees the fluorophore, 4-methylumbelliferone (4-MU), which is measured to assess PPT1 activity.

Data set [1] relates to SH anti-targets in HeLa cells. Put plainly: Gel-based competitive ABPP in situ, cultured HeLa cells, anti-targets. The data set is classed as cell-based, human. The note with it: 2 h, any compound concentration, ABHD6 not visible. The method, then:
Assay Overview: The purpose of this assay was to determine IC50 values of powder samples of test compounds for enzyme of interest activity in situ using a gel-based competitive ABPP assay. In this assay, cultured cells were treated with test compound, harvested, and lysed. The isolated soluble proteome fraction was reacted with FP-Rh and analyzed by SDS-PAGE as described above.
Protocol Summary: To cultured HeLa cells (90% confluent) was added fresh DMEM (5 mL total volume; supplemented with 10% FCS) pre-mixed with DMSO or test compound. After 2 hours at 37° C., cells were harvested by scraping, washed twice with 10 mL DPBS, and homogenized by sonication in DPBS. The soluble fraction was isolated by centrifugation (100K×g, 45 minutes) and the protein concentration was adjusted to 1 mg/mL with DPBS. FP-Rh (1 μL of 50× stock in DMSO) was added to a final concentration of 2 μM in 50 μL total reaction volume. […] The percentage activity remaining was determined by measuring the integrated optical density of the enzymes of interest, and anti-target bands relative to a DMSO-only (no compound) control. […]
Compound 1 is active in situ against the LYPLA enzymes (see FIG. 3A) as assessed by gel-based competitive ABPP with FP-Rh following two hours of compound treatment of HeLa cells cultured in serum-supplemented medium.

The test system of the next data set is HeLa cells. Put plainly: Analysis of cytotoxicity (WST-1). The format is cell-based, human. The protocol: Assay Overview: The purpose of this assay was to determine cytotoxicity of powder samples of test compounds. In this assay, HeLa cells in either serum-free medium or medium containing fetal calf serum (FCS) were incubated with test compounds, followed by determination of cell viability. The assay utilized the WST-1 substrate, which was converted into colorimetric formazan dye by the metabolic activity of viable cells. The amount of formed formazan directly correlated to the number of metabolically active cells in the culture.
Protocol Summary: This assay was started by seeding HeLa cells in DMEM medium supplemented with 10% FCS and 1× Pen-Strep-Glutamine in a 96-well plate. Cells were incubated at 37° C. in a humidified incubator until 80% confluent (24 hours). Medium was removed, and 100 μL of fresh medium (serum-free or supplemented with 10% FCS), pre-mixed with DMSO or test compound, was added to each well. Cells were incubated for 48 hours at 37° C. in a humidified incubator and cell viability was determined by the WST-1 assay (Roche) according to manufacturer instructions. CC50 values were determined from dose-response curves from three replicates at each inhibitor concentration (10, 100, 1000, 10000, 100000 nM), compared to six replicates of cells treated with DMSO only.
On the technique in general: Formazan colour is commonly taken as a measure of viable cells.

As for `O=C(ON1C(=O)C2CN(Cc3ccc(Oc4ccccc4)cc3)CCN2C1=O)N1CCOCC1` (stereo not drawn) [Compound 34, 1,3-dioxo-7-(4-phenoxybenzyl)hexahydroimidazo[1,5-a]pyrazin-2(3H)-yl morpholine-4-carboxylate], at endogenous PPT1, the “reduction in 4-MUBO hydrolysis activity versus DMSO” value is on record as “not”.
On to `COc1ccc(N2CCN(C(=O)ON3C(=O)C4CN(CC5CCN(Cc6ccccc6)CC5)CCN4C3=O)CC2)cc1` (stereo not drawn) [Compound 26, 7-((1-benzylpiperidin-4-yl)methyl)-1,3-dioxohexahydroimidazo[1,5-a]pyrazin-2(3H)-yl 4-(4-methoxyphenyl)piperazine-1-carboxylate], for which the “reduction in 4-MUBO hydrolysis activity versus DMSO” value on endogenous PPT1 was “substantial reductions”. The “reduction in endogenous PPT1 activity” value at endogenous PPT1 (500 nM, MU-6S-Palm-βD-Glc substrate assay) is given as 90%.
Turning to `O=C(ON1C(=O)C2CN(C(=O)N3CCOCC3)CCN2C1=O)N1CCC(CCc2ccc(Cl)cc2)CC1` (stereo not drawn) [Compound 1, 7-(morpholine-4-carbonyl)-1,3-dioxohexahydroimidazo[1,5-a]pyrazin-2(3H)-yl 4-(4-chloro-phenethyl)piperidine-1-carboxylate], the “anti-target inhibition in situ” value in data set [1] is on record as “No anti-target inhibition”. The cytotoxicity result with HeLa cells (HeLa, 48 h, serum-free and serum-supplemented medium, up to 100 μM) is “did not show evidence of cytotoxicity”. Also, the “dosing window (CC50 limit 10 μM versus in situ IC50)” value with HeLa cells (based on in situ IC50 values of 87/143 nM) is on record as ~70 fold.
